Where a SMILES comes first, the peptide text is derived from it. [ ]: non-standard residue; d: D form. Aib = CC(C)(N)C(=O)O

Tested on in one data set: not listed separately
As to the kind of experiment: Stability in human plasma assessed as parent compound remaining after 24 hrs. The data set is classed as ADME, cell-free. The settings on record: read-out: Stability.
Turning to `CC(=O)N[C@@H](Cc1ccccc1)C(=O)N[C@@H](CCC(N)=O)C(=O)N[C@@H](CO)C(=O)N[C@@H](CCCCN)C(=O)N(CCCN)CC(=O)N[C@@H](CC(N)=O)C(=O)N[C@H](C(=O)N[C@@H](Cc1cnc[nH]1)C(=O)N[C@H](C(=O)N[C@@H](CC(=O)O)C(=O)NCC(=O)N[C@@H](Cc1ccc(O)cc1)C(=O)N[C@@H](Cc1ccccc1)C(=O)N[C@@H](CCC(=O)O)C(=O)N[C@@H](CCCNC(=N)N)C(=O)N[C@@H](CC(C)C)C(=O)NC(C)(C)C(=O)N[C@@H](C)C(=O)N[C@@H](CCCCN)C(=O)N[C@@H](CC(C)C)C(N)=O)C(C)C)C(C)C`, the remaining at 24 h is 46.7%.

As to `CCN1C(=O)CC(SC[C@H](NC(=O)[C@H](CC(C)C)NC(=O)[C@H](CCCCN)NC(=O)[C@H](C)NC(=O)C(C)(C)NC(=O)[C@H](CC(C)C)NC(=O)[C@H](CCCNC(=N)N)NC(=O)[C@H](CCC(=O)O)NC(=O)[C@H](Cc2ccccc2)NC(=O)[C@H](Cc2ccc(O)cc2)NC(=O)CNC(=O)[C@H](Cc2cnc[nH]2)NC(=O)[C@@H](NC(=O)[C@H](Cc2cnc[nH]2)NC(=O)[C@@H](NC(=O)[C@H](CC(N)=O)NC(=O)[C@H]2CCCN2C(=O)[C@H](CCCCN)NC(=O)[C@H](CO)NC(=O)[C@H](CCC(N)=O)NC(=O)[C@H](Cc2ccccc2)NC(C)=O)C(C)C)C(C)C)C(N)=O)C1=O` (stereo not given in full), the remaining at 24 h was found to be 18.6%.

`CCN1C(=O)CC(SC[C@H](NC(=O)[C@H](CC(C)C)NC(=O)[C@H](CCCCN)NC(=O)[C@H](C)NC(=O)C(C)(C)NC(=O)[C@H](CC(C)C)NC(=O)[C@H](CCCNC(=N)N)NC(=O)[C@H](CCC(=O)O)NC(=O)[C@H](Cc2ccccc2)NC(=O)[C@H](Cc2ccc(O)cc2)NC(=O)CNC(=O)[C@@H](CC(=O)O)NC(=O)[C@@H](NC(=O)[C@H](Cc2cnc[nH]2)NC(=O)[C@@H](NC(=O)[C@H](CS)NC(=O)[C@H]2CCCN2C(=O)[C@H](CCCCN)NC(=O)[C@H](CO)NC(=O)[C@H](CCC(N)=O)NC(=O)[C@H](Cc2ccccc2)NC(C)=O)C(C)C)C(C)C)C(N)=O)C1=O` (stereo not given in full): the remaining at 24 h stood at 70.9%.

For the compound `CCN1C(=O)CC(SC[C@H](NC(=O)[C@H](CC(C)C)NC(=O)[C@H](CCCCN)NC(=O)[C@H](C)NC(=O)C(C)(C)NC(=O)[C@H](CC(C)C)NC(=O)[C@H](CCCNC(=N)N)NC(=O)[C@H](CCC(=O)O)NC(=O)[C@H](Cc2ccccc2)NC(=O)[C@H](Cc2ccc(O)cc2)NC(=O)CNC(=O)[C@@H]2CCCN2C(=O)[C@@H](NC(=O)[C@H](Cc2cnc[nH]2)NC(=O)[C@@H](NC(=O)[C@H](CC(N)=O)NC(=O)[C@H]2CCCN2C(=O)[C@H](CCCCN)NC(=O)[C@H](CO)NC(=O)[C@H](CCC(N)=O)NC(=O)[C@H](Cc2ccccc2)NC(C)=O)C(C)C)C(C)(C)C)C(N)=O)C1=O` (stereo not given in full), the remaining at 24 h stood at 55.9%.

As to `CC(=O)N[C@@H](Cc1ccccc1)C(=O)N[C@@H](CCC(N)=O)C(=O)N[C@@H](CO)C(=O)N[C@@H](CCCCN)C(=O)N1CCC[C@@H]1C(=O)N[C@@H](CC(N)=O)C(=O)N[C@H](C(=O)N[C@@H](Cc1cnc[nH]1)C(=O)N[C@H](C(=O)N1CCC[C@H]1C(=O)N[C@@H]1CSSCC[C@@H](C(=O)N[C@@H](CCCNC(=N)N)C(=O)N[C@@H](CC(C)C)C(=O)NC(C)(C)C(=O)N[C@@H](C)C(=O)N[C@@H](CCCCN)C(=O)N[C@@H](CC(C)C)C(N)=O)NC(=O)[C@H](Cc2ccccc2)NC(=O)[C@H](Cc2ccc(O)cc2)NC1=O)C(C)C)C(C)C`, the remaining at 24 h amounted to 40.7%.

For the compound `CCCCCC(=O)N[C@@H](Cc1ccccc1)C(=O)N[C@@H](CCC(N)=O)C(=O)N[C@@H](CO)C(=O)N[C@@H](CCCCN)C(=O)N1CCC[C@@H]1C(=O)N[C@@H](CSCNC(C)=O)C(=O)N[C@H](C(=O)N[C@@H](Cc1cnc[nH]1)C(=O)N[C@H](C(=O)N[C@@H](CC(=O)O)C(=O)N[C@H](C)C(=O)N[C@@H](Cc1ccc(O)cc1)C(=O)N[C@@H](Cc1ccccc1)C(=O)N[C@@H](CCC(=O)O)C(=O)N[C@@H](CCCNC(=N)N)C(=O)N[C@@H](CC(C)C)C(=O)NC(C)(C)C(=O)N[C@@H](C)C(=O)N[C@@H](CCCCN)C(=O)N[C@@H](CC(C)C)C(=O)N[C@@H](CSC1CC(=O)N(CC)C1=O)C(=O)O)C(C)(C)C)C(C)C` (stereo not given in full), the remaining at 24 h turned out to be 107%.

Consider `CC(C)C[C@H](NC(=O)[C@H](CCCCN)NC(=O)[C@H](C)NC(=O)C(C)(C)NC(=O)[C@H](CC(C)C)NC(=O)[C@H](CCCNC(=N)N)NC(=O)[C@H](CCC(=O)O)NC(=O)[C@H](Cc1ccccc1)NC(=O)[C@H](Cc1ccc(O)cc1)NC(=O)[C@@H](C)NC(=O)[C@H](CC(=O)O)NC(=O)[C@@H](NC(=O)[C@H](Cc1cnc[nH]1)NC(=O)[C@@H](NC(=O)[C@H](CC(N)=O)NC(=O)[C@H]1CCCN1C(=O)[C@H](CCCCN)NC(=O)[C@H](CO)NC(=O)[C@H](CCC(N)=O)NC(=O)[C@H](Cc1ccccc1)NS(=O)(=O)c1ccc2ccccc2c1)C(C)C)C(C)(C)C)C(N)=O`, for which the remaining at 24 h was 105%.

Another data set addresses T1, Tissue factor pathway inhibitor (Homo sapiens, UniProt P10646).
T1 sequence (P10646 whole entry): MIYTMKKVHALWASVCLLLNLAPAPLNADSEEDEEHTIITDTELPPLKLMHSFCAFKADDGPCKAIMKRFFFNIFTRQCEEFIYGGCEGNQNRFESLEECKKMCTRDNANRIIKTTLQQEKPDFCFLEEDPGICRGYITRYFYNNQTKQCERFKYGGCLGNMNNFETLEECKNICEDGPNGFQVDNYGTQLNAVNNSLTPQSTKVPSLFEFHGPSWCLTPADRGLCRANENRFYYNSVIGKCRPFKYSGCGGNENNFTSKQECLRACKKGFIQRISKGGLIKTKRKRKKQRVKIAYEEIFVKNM
As to the kind of experiment: Binding affinity to TFPI (unknown origin) incubated for […] using tracer peptide JBT0131 by screening ELISA.
Details: not given
(In general: An ELISA detects its analyte on a solid surface through an enzyme-linked reagent.)
On to Ac-FQSKGNVFVDGYFERLRMKL-NH2, for which the half-inhibitory concentration (IC50) (in general, the concentration that gives 50% inhibition) is less than 0.05 µM.

The compound `CCCCCCCCCCCCCC(=O)NCCCC[C@H](NC(=O)[C@H](CO)NC(=O)[C@H](CCC(N)=O)NC(=O)[C@H](Cc1ccccc1)NC(=O)CCCCC)C(=O)N1CCC[C@@H]1C(=O)N[C@@H](CO)C(=O)N[C@H](C(=O)N[C@@H](Cc1cnc[nH]1)C(=O)N[C@H](C(=O)N[C@@H](CC(=O)O)C(=O)N[C@H](C)C(=O)N[C@@H](Cc1ccc(O)cc1)C(=O)N[C@@H](Cc1ccccc1)C(=O)N[C@@H](CCC(=O)O)C(=O)N[C@@H](CCCNC(=N)N)C(=O)N[C@@H](CC(C)C)C(=O)NC(C)(C)C(=O)N[C@@H](C)C(=O)N[C@@H](CCCCN)C(=O)N[C@@H](CC(C)C)C(N)=O)C(C)(C)C)C(C)C` gave an IC50 of more than 0.5 µM.

For Ac-FQSKKNVFVFGYFERLDAKL-NH2, the IC50 was more than 5 µM.

For the compound `CC(=O)N[C@@H](Cc1ccccc1)C(=O)N[C@@H](CCC(N)=O)C(=O)N[C@@H](CO)C(=O)N[C@@H](CCCCN)C(=O)NCC(=O)N[C@@H](CC(N)=O)C(=O)N[C@H](C(=O)NC(C)(C)C(=O)N[C@H](C(=O)N[C@@H](CC(=O)O)C(=O)NCC(=O)N[C@@H](Cc1ccc(O)cc1)C(=O)N[C@@H](Cc1ccccc1)C(=O)N[C@@H](CCC(=O)O)C(=O)N[C@@H](CCCNC(=N)N)C(=O)N[C@@H](CC(C)C)C(=O)NC(C)(C)C(=O)N[C@@H](C)C(=O)N[C@@H](CCCCN)C(=O)N[C@@H](CC(C)C)C(N)=O)C(C)C)C(C)C` (Ac-FQSKGNV[Aib]VDGYFERL[Aib]AKL-NH2), the IC50 is more than 5 µM.

Consider Ac-FFSKKNVFVFGYFERLRAKL-NH2, for which the IC50 is more than 5 µM.

In turn, `CC(=O)N[C@@H](Cc1ccccc1)C(=O)N[C@@H](CCC(N)=O)C(=O)N[C@@H](CO)C(=O)N[C@@H](CCCCN)C(=O)NCC(=O)N[C@@H](CC(N)=O)C(=O)N[C@H](C(=O)N[C@@H](Cc1ccccc1)C(=O)N[C@H](C(=O)N[C@@H](CC(=O)O)C(=O)NCC(=O)N[C@@H](Cc1ccc(O)cc1)C(=O)N[C@@H](Cc1ccccc1)C(=O)N[C@@H](CCC(=O)O)C(=O)N[C@@H](CCCNC(=N)N)C(=O)N[C@@H](CC(C)C)C(=O)NC(C)(C)C(=O)N[C@@H](C)C(=O)NC(C)(C)C(=O)N[C@@H](CC(C)C)C(N)=O)C(C)C)C(C)C` (Ac-FQSKGNVFVDGYFERL[Aib]A[Aib]L-NH2) registered an IC50 of more than 5 µM.

Ac-FQSKKNVFVFGLFERLRAKL-NH2 showed an IC50 of more than 5 µM.

Compound Ac-FQSKKNVFVFGFFERLRAKL-NH2 had a half-maximal inhibitory concentration (IC50) of more than 5 µM.

The compound Ac-FQSKKNVFVFGGFERLRAKL-NH2 showed a half-maximal inhibitory concentration (IC50) of more than 5 µM.

The compound Ac-FLSKKNVFVFGYFERLRAKL-NH2 yielded a half-inhibitory concentration (IC50) of 1 to 5 µM.

In turn, Ac-FQSKKNVFVFGYFERDRAKL-NH2 returned an IC50 of more than 5 µM.

Take Ac-FQFKKNVFVFGYFERLRAKL-NH2: the concentration for half-maximal inhibition (IC50) was more than 5 µM.

For Ac-FQSKKNVFVFLYFERLRAKL-NH2, the IC50 is more than 5 µM.

In turn, Ac-FQLKKNVFVFGYFERLRAKL-NH2 yielded a 50% inhibitory concentration (IC50) of more than 5 µM.

For Ac-FQSKKFVFVFGYFERLRAKL-NH2, the half-inhibitory concentration (IC50) is more than 5 µM.

Compound `CC(=O)N[C@H](CC(C)C)C(=O)N[C@H](CCCCN)C(=O)N[C@H](C)C(=O)N[C@H](CCCNC(=N)N)C(=O)N[C@H](CC(C)C)C(=O)N[C@H](CCCNC(=N)N)C(=O)N[C@H](CCC(=O)O)C(=O)N[C@H](Cc1ccccc1)C(=O)N[C@H](Cc1ccc(O)cc1)C(=O)NCC(=O)N[C@H](Cc1ccccc1)C(=O)N[C@@H](C(=O)N[C@H](Cc1ccccc1)C(=O)N[C@@H](C(=O)N[C@H](CC(N)=O)C(=O)N[C@H](CCCCN)C(=O)N[C@H](CCCCN)C(=O)N[C@H](CO)C(=O)N[C@H](CCC(N)=O)C(=O)N[C@H](Cc1ccccc1)C(N)=O)C(C)C)C(C)C` had an IC50 of 0.556 to 1.67 µM.

For the compound Ac-FQSKHHVFVDGYFERLCAKL-NH2, the IC50 is less than 0.05 µM.

For Ac-FQSKKNVFVFGYFERLRFKL-NH2, the IC50 was more than 5 µM.

As for Ac-FQSKKNVFVFGYFEFLRAKL-NH2, the IC50 was more than 5 µM.

Consider Ac-FQSKKNVFVFGYFERLFAKL-NH2, for which the half-inhibitory concentration (IC50) was more than 5 µM.

For the compound `CCCCCCCCCCCCCC(=O)NCCCC[C@H](NC(=O)[C@@H](NC(=O)[C@H](Cc1cnc[nH]1)NC(=O)[C@@H](NC(=O)[C@H](CO)NC(=O)[C@H]1CCCN1C(=O)[C@H](CCCCN)NC(=O)[C@H](CO)NC(=O)[C@H](CCC(N)=O)NC(=O)[C@H](Cc1ccccc1)NC(=O)CCCCC)C(C)C)C(C)(C)C)C(=O)N[C@H](C)C(=O)N[C@@H](Cc1ccc(O)cc1)C(=O)N[C@@H](Cc1ccccc1)C(=O)N[C@@H](CCC(=O)O)C(=O)N[C@@H](CCCNC(=N)N)C(=O)N[C@@H](CC(C)C)C(=O)NC(C)(C)C(=O)N[C@@H](C)C(=O)N[C@@H](CCCCN)C(=O)N[C@@H](CC(C)C)C(N)=O`, the half-maximal inhibitory concentration (IC50) is more than 0.5 µM.

As for Ac-FQSKKNYDVFGYFERLRAKL-NH2, the IC50 was more than 5 µM.

`CC(=O)N[C@@H](Cc1ccccc1)C(=O)N[C@@H](CCC(N)=O)C(=O)N[C@@H](CO)C(=O)N[C@@H](CCCCN)C(=O)NCC(=O)N[C@@H](CC(N)=O)C(=O)N[C@H](C(=O)N[C@@H](Cc1ccccc1)C(=O)N[C@H](C(=O)N[C@@H](CC(=O)O)C(=O)NCC(=O)NC(C)(C)C(=O)NC(C)(C)C(=O)N[C@@H](C)C(=O)N[C@@H](CCCCN)C(=O)N[C@@H](CC(C)C)C(N)=O)C(C)C)C(C)C` (Ac-FQSKGNVFVDG[Aib][Aib]AKL-NH2): the IC50 is more than 5 µM.

For the origin of these results see ChEMBL document CHEMBL4420062, “Tfpi inhibitors and methods of use” (2013).
